Measured values published in patent US10745382B2 (BRISTOL-MYERS SQUIBB COMPANY, priority 2015, dated 2020).
pIC50: −log10 of the molar value.

Target: T1, PD-1/PD-L1 (Homo sapiens, UniProt Q9NZQ7)
T1 construct: made in house; host or cells: HEK293T
Test: PD-1/PD-L1 Homogenous Time-Resolved Fluorescence (HTRF) binding assay
Conditions: PD-L1-His 10 nM, PD-1-Ig 20 nM; value given as range class; read-out: Range or IC50
Outline: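 Detection by europium cryptate anti-Ig plus APC anti-His (1 nM and 20 nM final) with HTRF signal. Buffer was dPBS, 0.1% BSA, 0.05% Tween-20.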

T1 sequence (Q9NZQ7 with tags, fused parts or gaps): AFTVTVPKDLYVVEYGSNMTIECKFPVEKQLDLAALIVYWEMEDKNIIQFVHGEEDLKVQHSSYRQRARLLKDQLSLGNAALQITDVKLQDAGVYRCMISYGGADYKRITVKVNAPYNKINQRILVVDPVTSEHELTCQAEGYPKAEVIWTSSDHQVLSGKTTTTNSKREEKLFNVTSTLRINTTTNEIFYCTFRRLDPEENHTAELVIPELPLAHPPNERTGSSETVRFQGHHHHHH

Structure (SMILES) | pIC50
Cc1c(COc2cc(OCc3cncc(C#N)c3)c(CNC(C)(CO)C(=O)O)cc2Cl)cccc1-c1cccc(OCCCN2CCC(CO)(C(=O)O)C2)c1C (single isomer, unassigned) [Example 1067] | 8.00 to 9.68
Cc1c(COc2cc(OCc3cncc(S(C)(=O)=O)c3)c(CNC(C)(CO)CO)cc2Cl)cccc1-c1cccc(OCCCN2CC[C@@H](O)C2)c1Cl [Example 1532, (R)-2-((5-chloro-4-((2′-chloro-3′-(3-(3-hydroxypyrrolidin-1-yl)propoxy)-2-methyl-[1,1′-biphenyl]-3-yl)methoxy)-2-((5-(methylsulfonyl)pyridin-3-yl)methoxy)benzyl)amino)-2-methylpropane-1,3-diol] | 8.00 to 9.68
Cc1c(COc2cc(OCc3cncc(C#N)c3)c(CO)cc2Cl)cccc1-c1cccc(OCCCN2CCC[C@H](C(=O)O)C2)c1Cl [Example 2009, (S)-1-(3-((2-chloro-3′-((2-chloro-5-((5-cyanopyridin-3-yl)methoxy)-4-(hydroxymethyl)phenoxy)methyl)-2′-methyl-[1,1′-biphenyl]-3-yl)oxy)propyl)piperidine-3-carboxylic Acid] | 7.00 to 8.00
Cc1c(COc2cc(OCc3cncc(C#N)c3)c(CN3CCCC[C@H]3C(=O)O)cc2Cl)cccc1-c1cccc(OCCCN2CCC(O)(C(=O)O)CC2)c1C [Example 1061, (S)-1-(4-((3′-(3-(4-carboxy-4-hydroxypiperidin-1-yl)propoxy)-2,2′-dimethyl-[1,1′-biphenyl]-3-yl)methoxy)-5-chloro-2-((5-cyanopyridin-3-yl)methoxy)benzyl)piperidine-2-carboxylic Acid] | 8.00 to 9.68
CC(=O)N[C@H]1CCN(CCCOc2cccc(-c3cccc(COc4cc(OCc5cncc(C#N)c5)c(CN[C@](C)(CO)C(=O)O)cc4Cl)c3Cl)c2Cl)C1 [Example 2070, (R)-2-((4-((3′-(3-((S)-3-acetamidopyrrolidin-1-yl)propoxy)-2,2′-dichloro-[1,1′-biphenyl]-3-yl)methoxy)-5-chloro-2-((5-cyanopyridin-3-yl)methoxy)benzyl)amino)-3-hydroxy-2-methylpropanoic Acid] | 8.00 to 9.68
Cc1c(COc2cc(OCc3cncc(C#N)c3)c(CN[C@H](CO)C(=O)O)cc2Cl)cccc1-c1cccc(OCCCN2CC[C@@H](O)C2)c1Cl [Example 1512, (R)-2-((5-chloro-4-((2′-chloro-3′-(3-((R)-3-hydroxypyrrolidin-1-yl)propoxy)-2-methyl-[1,1′-biphenyl]-3-yl)methoxy)-2-((5-cyanopyridin-3-yl)methoxy)benzyl)amino)-3-hydroxypropanoic acid] | 8.00 to 9.68
Cc1c(COc2cc(OCc3cncc(C#N)c3)c(CO)cc2Cl)cccc1-c1cccc(OCCCNC(CO)CO)c1Cl [Example 2039, 5-((4-chloro-5-((2′-chloro-3′-(3-((1,3-dihydroxypropan-2-yl)amino)propoxy)-2-methyl-[1,1′-biphenyl]-3-yl)methoxy)-2-(hydroxymethyl)phenoxy)methyl)nicotinonitrile] | 8.00 to 9.68
Cc1c(COc2cc(OCc3cncc(C#N)c3)c(CNC(CO)CO)cc2Cl)cccc1-c1cccc(OCCCNCCc2cccnc2)c1Cl [Example 2037, 5-((4-chloro-5-((2′-chloro-2-methyl-3′-(3-((2-(pyridin-3-yl)ethyl)amino)propoxy)-[1,1′-biphenyl]-3-yl)methoxy)-2-(((1,3-dihydroxypropan-2-yl)amino)methyl)phenoxy)methyl)nicotinonitrile] | 8.00 to 9.68
Cc1c(COc2cc(OCc3cncc(C#N)c3)c(CN[C@@](C)(CO)C(=O)O)cc2Cl)cccc1-c1cccc(OCCCN2CC[C@H](CO)[C@H](O)C2)c1C [Example 2261, (2S)-2-(5-chloro-2-((5-cyanopyridin-3-yl)methoxy)-4-((3′-(3-((3 S,4R)-3-hydroxy-4-(hydroxymethyl)piperidin-1-yl)propoxy)-2,2′-dimethylbiphenyl-3-yl)methoxy)benzylamino)-3-hydroxy-2-methylpropanoic Acid] | 8.00 to 9.68
Cc1c(COc2cc(OCc3cncc(C#N)c3)c(CNC(C)(CO)CO)cc2Cl)cccc1-c1cccc(OCCCNC(=O)C(O)CO)c1Cl (stereo not shown) [Example 2088, N-(3-((2-chloro-3′-((2-chloro-5-((5-cyanopyridin-3-yl)methoxy)-4-(((1,3-dihydroxy-2-methylpropan-2-yl)amino)methyl)phenoxy)methyl)-2′-methyl-[1,1′-biphenyl]-3-yl)oxy)propyl)-2,3-dihydroxypropanamide] | 8.00 to 9.68

Continued, values first:

pIC50 | Structure (SMILES)
8.00 to 9.68 | Cc1c(COc2cc(OCc3cncc(C#N)c3)c(CN[C@@](C)(CO)C(=O)O)cc2Cl)cccc1-c1cccc(OCCCNC[C@H](O)CO)c1C [Example 2286, (S)-2-((5-chloro-2-((5-cyanopyridin-3-yl)methoxy)-4-((3′-(3-(((S)-2,3-dihydroxypropyl)amino)propoxy)-2,2′-dimethyl-[1,1′-biphenyl]-3-yl)methoxy)benzyl)amino)-3-hydroxy-2-methylpropanoic Acid]
8.00 to 9.68 | Cc1ccc(OCCCN2CC[C@@H](O)C2)c(C)c1-c1cccc(COc2cc(OCc3cncc(C#N)c3)c(CN3CCCC[C@H]3C(=O)O)cc2Cl)c1C [Example 3030, (2S)-1-(5-chloro-2-((5-cyanopyridin-3-yl)methoxy)-4-((3′-(3-((R)-3-hydroxypyrrolidin-1-yl)propoxy)-2,2′,6′-trimethyl-[1,1′-biphenyl]-3-yl)methoxy)benzyl)piperidine-2-carboxylic Acid]
8.00 to 9.68 | Cc1c(COc2cc(OCc3cccc(C#N)c3)c(CN3CCCC[C@H]3C(=O)O)cc2Cl)cccc1-c1cccc(OCCCN2[C@@H]3CC[C@H]2COC3)c1C [Example 3055, (S)-1-(4-((3′-(3-((1R,5S)-3-oxa-8-azabicyclo[3.2.1]octan-8-yl)propoxy)-2,2′-dimethyl-[1,1′-biphenyl]-3-yl)methoxy)-5-chloro-2-((3-cyanobenzyl)oxy)benzyl)piperidine-2-carboxylic Acid]
8.00 to 9.68 | Cc1c(COc2cc(OCc3cncc(C#N)c3)c(CN(C)C(CO)CO)cc2Cl)cccc1-c1cccc(OCCCN2CCC(F)(F)C2)c1C [Example 4120, 5-((4-chloro-5-((3′-(3-(3,3-difluoropyrrolidin-1-yl)propoxy)-2,2′-dimethyl-[1,1′-biphenyl]-3-yl)methoxy)-2-(((1,3-dihydroxypropan-2-yl)(methyl)amino)methyl)phenoxy)methyl)nicotinonitrile]
8.00 to 9.68 | Cc1c(COc2cc(OCc3cncc(C#N)c3)c(CNC(C)(CO)C(=O)O)cc2Cl)cccc1-c1cccc(OCc2cncc(C#N)c2)c1 (racemic) [Example 3018, 2-((5-chloro-2-((5-cyanopyridin-3-yl)methoxy)-4-((3′-((5-cyanopyridin-3-yl)methoxy)-2-methyl-[1,1′-biphenyl]-3-yl)methoxy)benzyl)amino)-3-hydroxy-2-methylpropanoic Acid]
8.00 to 9.68 | Cc1c(COc2cc(OCc3cncc(C#N)c3)c(C(C)N(C)C(CO)CO)cc2Cl)cccc1-c1cccc(OCCCN2CC[C@@H](O)C2)c1C (stereo partly drawn) [Example 4140, 5-((4-chloro-2-(1-((1,3-dihydroxypropan-2-yl)(methyl)amino)ethyl)-5-((3′-(3-((R)-3-hydroxypyrrolidin-1-yl)propoxy)-2,2′-dimethyl-[1,1′-biphenyl]-3-yl)methoxy)phenoxy)methyl)nicotinonitrile]
8.00 to 9.68 | Cc1c(COc2cc(OCc3cncc(C#N)c3)c(CN3CCCC[C@H]3C(=O)O)cc2Cl)cccc1-c1cccc(OCCCN2CC[C@@H](F)C2)c1C [Example 3057, (S)-1-(5-chloro-2-((5-cyanopyridin-3-yl)methoxy)-4-((3′-(3-((R)-3-fluoropyrrolidin-1-yl)propoxy)-2,2′-dimethyl-[1,1′-biphenyl]-3-yl)methoxy)benzyl)piperidine-2-carboxylic Acid]
5.70 to 7.00 | CCNC(=O)c1cccc(-c2cccc(COc3cc(OCc4cc(F)cc(F)c4)c(CN4CCC[C@H]4C(=O)O)cc3Cl)c2C)c1C [Example 4018, (5-chloro-2-((3,5-difluorobenzyl)oxy)-4-((3′-(ethylcarbamoyl)-2,2′-dimethyl-[1,1′-biphenyl]-3-yl)methoxy)benzyl)-L-proline]
8.00 to 9.68 | Cc1c(COc2cc(OCc3cncc(C#N)c3)c(CN[C@@](C)(CO)C(=O)O)cc2Cl)cccc1-c1cccc(OCCCN2CCC(O)(c3ccccc3)C2)c1C (stereo partly drawn) [Example 3037, (2S)-2-((5-chloro-2-((5-cyanopyridin-3-yl)methoxy)-4-((3′-(3-(3-hydroxy-3-phenylpyrrolidin-1-yl)propoxy)-2,2′-dimethyl-[1,1′-biphenyl]-3-yl)methoxy)benzyl)amino)-3-hydroxy-2-methylpropanoic Acid]
8.00 to 9.68 | Cc1c(COc2cc(OCc3cncc(C#N)c3)c(CN[C@](C)(CO)C(=O)O)cc2Cl)cccc1-c1ccc2c(c1C)OCCO2 [Example 3042, (2R)-2-((5-chloro-2-((5-cyanopyridin-3-yl)methoxy)-4-((2-methyl-3-(5-methyl-2,3-dihydrobenzo[b][1,4]dioxin-6-yl)benzyl)oxy)benzyl)amino)-3-hydroxy-2-methylpropanoic Acid]
8.00 to 9.68 | Cc1c(COc2cc(OCc3cncc(C#N)c3)c(CN(C)[C@@](C)(CO)C(=O)O)cc2Cl)cccc1-c1cccc(OCCCN2CCC(F)(F)C2)c1C [Example 4115, (S)-2-((5-chloro-2-((5-cyanopyridin-3-yl)methoxy)-4-((3′-(3-(3,3-difluoropyrrolidin-1-yl)propoxy)-2,2′-dimethyl-[1,1′-biphenyl]-3-yl)methoxy)benzyl)(methyl)amino)-3-hydroxy-2-methylpropanoic Acid]
8.00 to 9.68 | Cc1c(COc2cc(OCc3cncc(C#N)c3)c(CNCCCN(C)C)cc2Cl)cccc1-c1cccc(OCCCN2CCC(O)C2)c1 (stereo in doubt) [Example 3001, (R)-5-((4-chloro-2-(((3-(dimethylamino)propyl)amino)methyl)-5-((3′-(3-(3-hydroxypyrrolidin-1-yl)propoxy)-2-methyl-[1,1′-biphenyl]-3-yl)methoxy)phenoxy)methyl)nicotinonitrile]
